Values after ≈ are worked out from the molar mass of the structure shown.
Columns and labels:
[1] = system: dormantfungi present around infections; settings: reported in Mycoses, 46, pp. 505-510, 2003; cited from earlier work
[2] = system: Aspergillus fumigatus FP1305; test: Antifungal activity, broth microdilution method; assay type: cell-based; settings: minimum inhibitory concentration
Protocol: (§1) Antifungal activities for the following test fungi were determined by a broth microdilution method (Hikaru Kume and Toshikazu Yamazaki, Clinical Microbiology, Vol. 21, No. 5, pp. 573-580, 1994).

[3] = system: Trichophyton mentagrophytes FP2103; test: Antifungal activity, broth microdilution method; assay type: cell-based; settings: minimum inhibitory concentration
Protocol: as §1

[4] = system: Alternaria alternata AHU9258; test: Antifungal activity, broth microdilution method; assay type: cell-based; settings: minimum inhibitory concentration
Protocol: as §1

[5] = system: Trichophyton rubrum FP596; test: Antifungal activity, broth microdilution method; assay type: cell-based; settings: minimum inhibitory concentration
Protocol: as §1

[6] = system: Cryptococcus neoformans FP1739; test: Antifungal activity, broth microdilution method; assay type: cell-based; settings: minimum inhibitory concentration
Protocol: as §1

[7] = Cytotoxicity to EL-4 cells, cell counting kit; assay type: cell-based, mouse; settings: mouse, EL-4 mouse T lymphoma cells, 37° C.
Protocol: (§2) Cytotoxicity was evaluated by adding a test drug to mouse T lymphoma cell line EL-4 at various concentrations, incubating the cells in a CO2 incubator at 37° C. for 72 hours, counting the cells using a cell counting kit (Wako Pure Chemical Industries, Ltd.), and calculating IC50 values.

[8] = system: mouse T lymphoma cell line EL-4; test: Cytotoxicity to EL-4 cells, cell counting kit; assay type: cell-based; settings: 37° C., 72 hours
Protocol: as §2

Complex III = Complex III inhibitory activity, ubiquinol-cytochrome c reductase assay using isolated mitochondrial fraction; assay type: biochemical; settings: mitochondrial fraction of Trichophyton mentagrophytes FP2103; kind of value (IC50 or other) not stated
Protocol: A medium (0.1% glucose, 0.2% bacto tryptone, 0.2% K2HPO4, 0.005% MgSO4.7H2O and 0.005% CaC12.2H2O) was poured into an Erlenmeyer flask and sterilized by autoclaving. Conidiophores of Trichophyton mentagrophytes FP2103 were inoculated into the medium, and cultured at 30° C. for 40 hours while shaking on a rotary shaker. The fungus was collected from the cultural solution and dipped in a cell wall lysis enzyme solution {1 M KC1, 25 mM CaC12.2H2O, 10 mM MgC12.6H2O, 5 mg/mL zymolyase-100T (Seikagaku Corporation), 1 mg/mL chitinase (Sigma) and 5 mg/mL drieselase (Sigma)}, and the resulting mixture was stirred at 30° C. for 4 hours. The enzyme treatment solution was filtered through glass funnel filled with gauze to obtain protoplast. A mitochondrial fraction was isolated from the protoplast by using a Mitochondria Isolation Kit (BioChain Institute, Inc.). The Complex III inhibitory activity was measured in the ubiquinol-cytochrome c reductase assay using the isolated mitochondrial fraction (The Journal of Biological Chemistry, 279, pp. 8708-8714, 2004). As a result, the compound A inhibited the complex III at 0.9 ng/mL.

SMILES | activity against dormant fungi [1] | MIC [2] | MIC [3] | MIC [4] | MIC [5] | MIC [6] | IC50 at 72 h [7] | concentrations showing no cytotoxic effect [8] | concentration at which complex III was inhibited (Complex III)
CN(C/C=C/C#CC(C)(C)C)Cc1cccc2ccccc12 [Terbinafine] | weak activity | – | – | – | – | – | – | – | –
CCC(C)CC(C)CCC1CCCC(c2c(O)c(C3C(O)C(O)C(O)C3O)cn(C)c2=O)O1 (stereo not drawn) [compound A] | – | 25 µg/mL (≈ 53.5 µM) | 0.1 µg/mL (≈ 0.214 µM) | 6.3 µg/mL (≈ 13.5 µM) | 0.1 µg/mL (≈ 0.214 µM) | 1.3 µg/mL (≈ 2.78 µM) | 6.2 µg/mL (≈ 13.3 µM) | ≤ 3100 ng/mL | 0.9 ng/mL

Source: patent publication US20120059038A1, “[…]” (Astellas Pharma Inc., priority 2009, published 2012)
